Results as given in publication PMC10572575, “Design, Synthesis, and Potent Anticancer Activity of Novel Indole-Based Bcl-2 Inhibitors” (International Journal of Molecular Sciences, 2023).

Key:
[1] = tested on: HDF human dermal normal fibroblast cells; assay: Safety profile on HDF normal fibroblasts; format: cell-based; details: 50 µM, 24 hrs
Procedure: (§1) MDA-231 triple-negative breast cancer cells, MCF-7 breast cancer cells, and A549 adenocarcinomic human alveolar basal epithelial cells were maintained in Roswell Park Memorial Institute media (RPMI 1640, Sigma-Aldrich, St. Louis, MO, USA) supplemented with 10% foetal bovine serum and 1% penicillin/streptomycin. HDF human dermal normal fibroblast cells were cultured in Dulbecco’s Modified Eagle Medium (DMEM, Sigma-Aldrich, Eppelheim, Germany). MCF-7 breast cancer cell line was obtained from Cell Lines Service (CLS; Eppelheim, Germany). MDA-MB-231 breast cancer cell line and A549 cancer cells were obtained from the European Collection of Authenticated Cell Cultures (ECACC; Gillingham UK). Cell lines were maintained at 37 °C in a humidified incubator with 5% CO2.
(§2) The antiproliferative activity of compounds U1–6 was assessed using the 3-[4,5-dimethylthiazol-2-yl]-2,5-diphenyl tetrazolium bromide (MTT) assay, as previously described. Cancer cell lines were seeded in 96-well flatbottom plates at a density of 10^4 cells/well for 24 h. […] DMSO was used as a negative vehicle control (1% concentration). The culture media were then removed and incubated for 2 h with fresh 200 µL culture media containing 5 mg/mL MTT. After removing the culture media and dissolving the produced formazan crystals in 100 µL DMSO, they were incubated for another 30 min at 37 °C. The produced colour was measured at 570 nm using a microplate reader (Thermo-Scientific, Vantaa, Finland). The GraphPad Prism version 9.1 software was used to generate plots of absorbance versus the compound’s concentration. Three independent repeat experiments were performed for each concentration to ensure reproducibility. IC50 values were obtained from nonlinear regression plots of absorbance versus the log concentration of the tested compounds using the GraphPad Prism software version 5.0 (San Diego, CA, USA).

MDA-MB-231 cells = assay: MTT cytotoxicity assay, MDA-MB-231; format: cell-based; details: Homo sapiens, 48 h, mean ± SEM of three
Procedure: as §1
as §2, with “h. The cells were subsequently treated with U1–6 compounds at a screening concentration of 50 µM and incubated at 37 °C for 48 h in a humidified incubator containing 5% CO2.” for “h.”

A549 cells = assay: MTT cytotoxicity assay, A549; format: cell-based; details: Homo sapiens, 48 h, mean ± SEM of three
Procedure: as §1
as §2, with “h. The cells were subsequently treated with U1–6 compounds at a screening concentration of 50 µM and incubated at 37 °C for 48 h in a humidified incubator containing 5% CO2.” for “h.”

MCF-7 cells [2] = assay: MTT cytotoxicity assay, MCF-7; format: cell-based; details: Homo sapiens, MCF7, 48 h, mean ± SEM of three
Procedure: as §1
as §2, with “h. The cells were subsequently treated with U1–6 compounds at a screening concentration of 50 µM and incubated at 37 °C for 48 h in a humidified incubator containing 5% CO2.” for “h.”

MCF-7 cells [3] = assay: Cell cycle assay (PI flow cytometry); format: cell-based, human; details: MCF-7, 24 h, at IC50 concentration
Procedure: DMSO vehicle was used as a negative control (1% concentration). The cells were collected, centrifuged, and fixed in 70% ethanol on ice for 20 min. The fixed cells were incubated for 1 h at room temperature with staining solution ([…] propidium iodide PI, 0.05% Triton X-100, 0.1 mg/mL RNaseA). A Gallios flow cytometer (Beckman Coulter, Brea, CA, USA) was used to measure the cell cycle proportion.

MCF-7 cells [4] = assay: Annexin-V-FITC apoptosis assay; format: cell-based, human; details: MCF-7, 24 h
Procedure: The Annexin-V-FITC apoptosis detection kit (Catalog # k101-25, Biovision, Mountain View, USA) was used for the apoptosis experiment according to previously published data. MCF-7 cells were treated with U2 compound for 24 h. The negative control was 0.1% DMSO. The cells were collected via centrifugation and resuspended in 500 µL of 1X Binding Buffer. Treated and control cells were stained with 5 µL Annexin V-FITC and 5 µL propidium iodide (PI […]) and then incubated at room temperature for 5 min in the dark. Fluorescence-activated cell sorting (FACS) was quantified via flow cytometry. Flow cytometry (excision at 488 nm; emission at 530 nm) was used to examine Annexin V-FITC binding and PI staining using the FITC signal detector and a phycoerythrin emission signal detector [71].

Bcl-2 protein = target: T1, Bcl-2 protein (Homo sapiens, UniProt P10415); assay: Bim ELISA binding assay (Bcl-2–Bim binding); details: mean ± SEM of three, read-out: IC50 using ELISA against Bcl-2
T1 construct: purchased Thermo-Scientific BMS244-3
Procedure: A Bim-binding assay (Thermo-Scientific, Catalogue No # BMS244-3, Vienna, Austria) was performed according to previously published data. PBS solution containing 0.05% Tween-20 was used to wash a streptavidin-coated 96-well plate. For immobilisation, biotinylated Bim peptide (residues 81–106) was diluted in SuperBlock blocking solution and applied to each well. After incubation, the plate was washed with 0.5% BSA in PBS with Tween-20 solution. […] After another wash, each well received anti-His antibody with horseradish peroxidase enzyme. Following incubation and washing, O-phenylenediamine and hydrogen peroxide solution were added for colour production. A plate reader (Thermo-Scientific, Vantaa, Finland) was used to measure the optical density at 450 nm. The reduction in Bim affinity was measured using a nonlinear regression curve (GraphPad Prism. Version 5.0), which was also utilized to generate the IC50 value of Bcl-2 inhibition.

T1 sequence (P10415 whole entry): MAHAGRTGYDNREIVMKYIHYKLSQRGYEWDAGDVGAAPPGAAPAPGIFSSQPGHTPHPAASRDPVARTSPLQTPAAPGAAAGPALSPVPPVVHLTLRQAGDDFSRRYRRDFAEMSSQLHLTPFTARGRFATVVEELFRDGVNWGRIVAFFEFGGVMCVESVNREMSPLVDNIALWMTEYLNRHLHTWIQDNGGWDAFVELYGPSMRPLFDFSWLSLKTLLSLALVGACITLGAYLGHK

melting point	IC50 (Bcl-2 protein)	SMILES	Inhibitory activity against HDF cells compared with the negative control [1]	IC50 (MDA-MB-231 cells)	IC50 (A549 cells)	IC50 (MCF-7 cells [2])	Cell cycle effect (MCF-7 cells [3])	Increase in early apoptosis compared with control untreated cells (MCF-7 cells [4])	Increase in late apoptosis compared with control untreated cells (MCF-7 cells [4])
208 to 210 °C	–	O=C(CSc1nnc(-c2c[nH]c3ccccc23)n1-c1ccc(F)cc1)Nc1ccc(NC(=O)CN2CCOCC2)cc1 [Compound U1, 2-(4-(4-Fluorophenyl)-5-(1H-indol-3-yl)-4H-1,2,4-triazol-3-ylthio)-N-(4-(2 morpholinoacetamido)phenyl)acetamide]	no significant change	20.7 ± 0.85 µM	13.3 ± 0.58 µM	5.05 ± 0.8 µM	–	–	–
173 to 175 °C	1.2 ± 0.02 µM	COc1ccc(-n2c(SCC(=O)Nc3ccc(NC(=O)CN4CCOCC4)cc3)nnc2-c2c[nH]c3ccccc23)cc1 [Compound U2, 2-(5-(1H-Indol-3-yl)-4-(4-methoxyphenyl)-4H-1,2,4-triazol-3-ylthio)-N-(4-(2-morpholinoacetamido)phenyl)acetamide]	limited toxicity	5.22 ± 0.55 µM	0.73 ± 0.07 µM	0.83 ± 0.11 µM	cell cycle arrest at the G1/S phase	43 fold	111 fold
250 to 252 °C	11.1 ± 0.07 µM	Cc1ccc(-n2c(SCC(=O)Nc3ccc(NC(=O)CN4CCOCC4)cc3)nnc2-c2c[nH]c3ccccc23)cc1 [Compound U3, 2-(5-(1H-Indol-3-yl)-4-methylphenyl-4H-1,2,4-triazol-3-ylthio)-N-(4-(2-morpholinoacetamido)phenyl)acetamide]	no significant change	4.07 ± 0.35 µM	2.98 ± 0.19 µM	1.17 ± 0.1 µM	–	–	–
220 to 222 °C	–	O=C(CSc1nnc(-c2c[nH]c3ccccc23)n1-c1cccc(Cl)c1)Nc1ccc(NC(=O)CN2CCOCC2)cc1 [Compound U4, 2-(4-(3-Chlorophenyl)-5-(1H-indol-3-yl)-4H-1,2,4-triazol-3-ylthio)-N-(4-(2-morpholinoacetamido)phenyl) acetamide]	no significant change	28.4 ± 1.79 µM	16.1 ± 1.4 µM	11 ± 1.2 µM	–	–	–
208 to 210 °C	–	O=C(CSc1nnc(-c2c[nH]c3ccccc23)n1-c1ccc(Cl)cc1)Nc1ccc(NC(=O)CN2CCOCC2)cc1 [Compound U5, 2-(4-(4-Chlorophenyl)-5-(1H-indol-3-yl)-4H-1,2,4-triazol-3-ylthio)-N-(4-(2-morpholinoacetamido)phenyl)acetamide]	no significant change	45.1 ± 1.15 µM	47.8 ± 3.7 µM	34.4 ± 2.2 µM	–	–	–
218 to 220 °C	–	O=C(CSc1nnc(-c2c[nH]c3ccccc23)n1-c1ccc(Cl)c(Cl)c1)Nc1ccc(NC(=O)CN2CCOCC2)cc1 [Compound U6]	limited toxicity	79.4 ± 4.04 µM	66.5 ± 0.62 µM	35.5 ± 2.14 µM	–	–	–
–	–	Cc1cc2c(C(C)C)c(O)c(O)c(C=O)c2c(O)c1-c1c(C)cc2c(C(C)C)c(O)c(O)c(C=O)c2c1O [Gossypol, reference compound]	–	5.5 ± 0.35 µM	3.45 ± 0.4 µM	4.43 ± 0.54 µM	–	–	–
